Laboratory results taken from ChEMBL document CHEMBL1201862, “PubChem BioAssay data set” (2004).
Activity calls are given as the source filed them.

Columns and labels:
[1] = viability inhibitors of stage V gametocytes – luminescence, dose response (AID 1117278); type: functional, cell-based;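 note: gametocytes exposed to compound for 24 hours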
[2] = viability loss in human Jurkat cells – cell-based, luminescence, cytotoxicity control for P. falciparum gametocyte viability project, dose response (AID 1117277); type: functional;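 note: potency reflects loss of cellular ATP meaning fewer viable cells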
[3] = molecular target: T1, 1-phosphatidylinositol 4,5-bisphosphate phosphodiesterase gamma-1 (Homo sapiens, UniProt P19174); experiment: Counterscreen for inhibitors of phospholipase C isozymes (PLC-B3): Fluorescence-based biochemical high throughput dose response assay to identify inhibitors of phospholipase C isozymes (PLC-gamma1).
T1 sequence (P19174 whole entry): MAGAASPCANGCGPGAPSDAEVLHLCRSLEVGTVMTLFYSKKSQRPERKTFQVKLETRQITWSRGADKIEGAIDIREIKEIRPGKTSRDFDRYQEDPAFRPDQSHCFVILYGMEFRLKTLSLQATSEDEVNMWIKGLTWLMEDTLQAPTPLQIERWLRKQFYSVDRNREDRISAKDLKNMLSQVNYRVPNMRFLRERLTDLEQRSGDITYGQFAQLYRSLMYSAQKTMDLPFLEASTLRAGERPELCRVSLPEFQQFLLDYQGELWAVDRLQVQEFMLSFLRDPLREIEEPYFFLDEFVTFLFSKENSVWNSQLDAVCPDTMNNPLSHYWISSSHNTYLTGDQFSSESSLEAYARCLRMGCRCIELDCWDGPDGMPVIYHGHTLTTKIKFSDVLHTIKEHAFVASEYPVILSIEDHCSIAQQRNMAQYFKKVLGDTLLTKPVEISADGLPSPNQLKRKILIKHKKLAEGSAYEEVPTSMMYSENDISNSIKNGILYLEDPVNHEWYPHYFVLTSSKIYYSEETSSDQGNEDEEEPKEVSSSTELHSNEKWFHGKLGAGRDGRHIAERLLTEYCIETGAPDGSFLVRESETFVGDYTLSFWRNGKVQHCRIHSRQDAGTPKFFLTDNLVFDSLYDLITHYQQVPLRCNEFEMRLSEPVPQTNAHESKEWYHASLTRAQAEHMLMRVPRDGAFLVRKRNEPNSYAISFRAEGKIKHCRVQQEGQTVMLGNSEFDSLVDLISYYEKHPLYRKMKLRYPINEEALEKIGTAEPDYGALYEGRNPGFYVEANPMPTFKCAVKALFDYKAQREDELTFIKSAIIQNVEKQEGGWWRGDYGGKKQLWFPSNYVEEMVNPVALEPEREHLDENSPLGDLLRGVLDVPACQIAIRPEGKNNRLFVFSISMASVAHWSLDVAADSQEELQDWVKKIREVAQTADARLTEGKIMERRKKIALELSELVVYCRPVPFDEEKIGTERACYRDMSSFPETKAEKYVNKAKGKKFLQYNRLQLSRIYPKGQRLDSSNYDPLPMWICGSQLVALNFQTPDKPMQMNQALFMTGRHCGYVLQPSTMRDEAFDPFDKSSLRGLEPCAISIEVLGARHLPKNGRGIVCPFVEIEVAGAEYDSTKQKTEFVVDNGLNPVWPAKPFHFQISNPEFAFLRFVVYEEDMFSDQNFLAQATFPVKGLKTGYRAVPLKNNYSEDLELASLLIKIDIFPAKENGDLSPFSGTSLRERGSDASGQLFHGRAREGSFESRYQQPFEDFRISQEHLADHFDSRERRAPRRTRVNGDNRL

[4] = molecular target: T2, 1-phosphatidylinositol 4,5-bisphosphate phosphodiesterase beta-3 (Homo sapiens, UniProt Q01970); experiment: Fluorescence-based biochemical high throughput dose response assay to identify inhibitors of phospholipase C isozymes (PLC-B3).
T2 sequence (Q01970 whole entry): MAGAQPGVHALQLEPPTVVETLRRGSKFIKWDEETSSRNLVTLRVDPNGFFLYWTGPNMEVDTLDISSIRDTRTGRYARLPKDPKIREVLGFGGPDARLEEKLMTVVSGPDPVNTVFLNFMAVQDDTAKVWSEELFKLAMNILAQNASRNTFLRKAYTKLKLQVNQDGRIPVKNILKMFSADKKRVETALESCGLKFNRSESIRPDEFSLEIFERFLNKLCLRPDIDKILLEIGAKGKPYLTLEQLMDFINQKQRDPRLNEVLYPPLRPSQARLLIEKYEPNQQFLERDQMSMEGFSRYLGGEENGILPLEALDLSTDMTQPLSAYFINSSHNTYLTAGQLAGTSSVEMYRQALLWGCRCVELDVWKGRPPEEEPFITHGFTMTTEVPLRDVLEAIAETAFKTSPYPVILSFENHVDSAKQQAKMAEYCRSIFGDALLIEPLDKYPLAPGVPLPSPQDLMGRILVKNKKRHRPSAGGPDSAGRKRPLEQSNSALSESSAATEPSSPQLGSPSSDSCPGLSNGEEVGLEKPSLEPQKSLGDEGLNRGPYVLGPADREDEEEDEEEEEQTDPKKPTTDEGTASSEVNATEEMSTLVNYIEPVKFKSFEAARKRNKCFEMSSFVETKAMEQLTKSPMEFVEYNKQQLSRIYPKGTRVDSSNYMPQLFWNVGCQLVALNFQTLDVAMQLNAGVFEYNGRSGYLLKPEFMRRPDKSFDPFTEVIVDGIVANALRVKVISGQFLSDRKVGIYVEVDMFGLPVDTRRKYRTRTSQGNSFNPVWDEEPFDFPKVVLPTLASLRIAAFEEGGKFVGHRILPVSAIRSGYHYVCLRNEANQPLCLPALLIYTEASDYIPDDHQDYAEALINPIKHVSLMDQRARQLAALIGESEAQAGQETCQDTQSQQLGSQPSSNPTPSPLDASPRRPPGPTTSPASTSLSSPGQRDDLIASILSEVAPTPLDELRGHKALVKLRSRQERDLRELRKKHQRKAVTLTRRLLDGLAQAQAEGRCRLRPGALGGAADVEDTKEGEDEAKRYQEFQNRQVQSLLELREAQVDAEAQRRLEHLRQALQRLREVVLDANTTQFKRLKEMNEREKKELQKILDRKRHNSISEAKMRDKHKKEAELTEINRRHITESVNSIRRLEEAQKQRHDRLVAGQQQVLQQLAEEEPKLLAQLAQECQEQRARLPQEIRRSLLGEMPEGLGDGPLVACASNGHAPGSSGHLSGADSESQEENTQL

[5] = HGIII-sPLA2 enzyme inhibition potency – biochemical, QFRET, IC50, dose response (AID 743457);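 note: green fluorescence rise as the enzyme cleaves BODIPY PC-A2 in liposomes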
BJ [6] = experiment: BJ-TERT fibroblast viability loss – cell-based, RAS-independent, luminescence, dose response (AID 1933); type: functional; conditions: Homo sapiens
BJ [7] = experiment: cells; type: functional, cell-based; conditions: Homo sapiens
BJ [8] = experiment: BJ-TERT-LT-ST fibroblast viability loss – cell-based, RAS-independent, luminescence, dose response (AID 1935); type: functional; conditions: Homo sapiens;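 note: BJ fibroblasts immortalized with TERT plus LT and ST oncogenes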
[9] = DRD fibroblast viability loss – cell-based, non-viral oncogenic, luminescence, dose response (AID 1934); type: functional; conditions: Homo sapiens
BJ [10] = experiment: growth inhibition of engineered Ras-driven BJ cells – cell-based, alamar blue fluorescence, cherrypicked samples, dose response (AID 2631); type: functional; conditions: Homo sapiens;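 note: confirmatory dose-response assay in RAS-dependent BJ fibroblasts engineered with TERT, LT and ST, with cytotoxicity read by fluorescence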
[11] = activation of miR-122 Renilla sensor silencing – cell-based, Huh7 psiCHECK-miR122, Renilla luciferase, cherry-picked, dose response (AID 651956); type: functional;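 note: huh7 hepatoma cells stably carrying a psiCHECK-2 miR-122 sensor plasmid; renilla luciferase signal reporting endogenous miR-122 activity after 48 h compound exposure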
Fatty acid synthase [12] = molecular target: T3, Fatty acid synthase (Homo sapiens, UniProt P49327); experiment: inhibition of human FAS-TE enzyme activity – biochemical, endpoint fluorescence intensity, uHTS hits, dose response (AID 624327); type: functional;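 note: fluorescence from hydrolysis of an O-methyl fluorescein acyl ester substrate by the enzyme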
Fatty acid synthase [13] = molecular target: T3, Fatty acid synthase; experiment: inhibition of human FAS-TE enzyme activity – biochemical, kinetic fluorescence intensity, dose response (AID 624326); type: functional;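 note: rate of fluorescence rise from hydrolysis of a fluorogenic O-methyl fluorescein ester substrate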
[14] = general mammalian cell viability loss – inhibitor set, cherry-pick, set 2, cytotoxicity control for miR-122 modulator project, dose response (AID 720697); type: functional, cell-based
[15] = general mammalian cell viability loss – activator set, cherry-pick, cytotoxicity control for miR-122 modulator project, dose response (AID 720690); type: functional, cell-based;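 note: HEK293T human cells scored for general mammalian cytotoxicity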
[16] = viability loss in Vero cells – cytotoxicity control for Vif-APOBEC3G degradation inhibitor project, dose response (AID 1117358); type: functional; conditions: Vero
Cytochrome P450 1A2 = molecular target: T4, Cytochrome P450 1A2 (Homo sapiens, UniProt P05177);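 note: PubChem cytochrome P450 panel assay, CYP1A2 panel member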
T4 sequence (P05177 whole entry): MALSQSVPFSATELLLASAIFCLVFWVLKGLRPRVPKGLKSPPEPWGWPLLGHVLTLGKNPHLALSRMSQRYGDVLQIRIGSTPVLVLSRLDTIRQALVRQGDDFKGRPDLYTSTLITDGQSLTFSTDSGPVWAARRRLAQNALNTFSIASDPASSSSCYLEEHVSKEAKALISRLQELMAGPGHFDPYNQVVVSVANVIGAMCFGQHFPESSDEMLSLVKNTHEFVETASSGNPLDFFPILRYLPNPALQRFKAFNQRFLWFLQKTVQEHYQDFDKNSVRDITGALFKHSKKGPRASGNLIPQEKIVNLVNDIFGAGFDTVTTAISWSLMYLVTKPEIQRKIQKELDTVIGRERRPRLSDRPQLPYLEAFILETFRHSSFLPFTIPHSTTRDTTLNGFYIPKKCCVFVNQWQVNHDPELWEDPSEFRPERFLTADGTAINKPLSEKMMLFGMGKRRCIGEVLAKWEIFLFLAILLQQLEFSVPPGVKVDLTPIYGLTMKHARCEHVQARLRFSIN

T3 sequence (P49327 whole entry): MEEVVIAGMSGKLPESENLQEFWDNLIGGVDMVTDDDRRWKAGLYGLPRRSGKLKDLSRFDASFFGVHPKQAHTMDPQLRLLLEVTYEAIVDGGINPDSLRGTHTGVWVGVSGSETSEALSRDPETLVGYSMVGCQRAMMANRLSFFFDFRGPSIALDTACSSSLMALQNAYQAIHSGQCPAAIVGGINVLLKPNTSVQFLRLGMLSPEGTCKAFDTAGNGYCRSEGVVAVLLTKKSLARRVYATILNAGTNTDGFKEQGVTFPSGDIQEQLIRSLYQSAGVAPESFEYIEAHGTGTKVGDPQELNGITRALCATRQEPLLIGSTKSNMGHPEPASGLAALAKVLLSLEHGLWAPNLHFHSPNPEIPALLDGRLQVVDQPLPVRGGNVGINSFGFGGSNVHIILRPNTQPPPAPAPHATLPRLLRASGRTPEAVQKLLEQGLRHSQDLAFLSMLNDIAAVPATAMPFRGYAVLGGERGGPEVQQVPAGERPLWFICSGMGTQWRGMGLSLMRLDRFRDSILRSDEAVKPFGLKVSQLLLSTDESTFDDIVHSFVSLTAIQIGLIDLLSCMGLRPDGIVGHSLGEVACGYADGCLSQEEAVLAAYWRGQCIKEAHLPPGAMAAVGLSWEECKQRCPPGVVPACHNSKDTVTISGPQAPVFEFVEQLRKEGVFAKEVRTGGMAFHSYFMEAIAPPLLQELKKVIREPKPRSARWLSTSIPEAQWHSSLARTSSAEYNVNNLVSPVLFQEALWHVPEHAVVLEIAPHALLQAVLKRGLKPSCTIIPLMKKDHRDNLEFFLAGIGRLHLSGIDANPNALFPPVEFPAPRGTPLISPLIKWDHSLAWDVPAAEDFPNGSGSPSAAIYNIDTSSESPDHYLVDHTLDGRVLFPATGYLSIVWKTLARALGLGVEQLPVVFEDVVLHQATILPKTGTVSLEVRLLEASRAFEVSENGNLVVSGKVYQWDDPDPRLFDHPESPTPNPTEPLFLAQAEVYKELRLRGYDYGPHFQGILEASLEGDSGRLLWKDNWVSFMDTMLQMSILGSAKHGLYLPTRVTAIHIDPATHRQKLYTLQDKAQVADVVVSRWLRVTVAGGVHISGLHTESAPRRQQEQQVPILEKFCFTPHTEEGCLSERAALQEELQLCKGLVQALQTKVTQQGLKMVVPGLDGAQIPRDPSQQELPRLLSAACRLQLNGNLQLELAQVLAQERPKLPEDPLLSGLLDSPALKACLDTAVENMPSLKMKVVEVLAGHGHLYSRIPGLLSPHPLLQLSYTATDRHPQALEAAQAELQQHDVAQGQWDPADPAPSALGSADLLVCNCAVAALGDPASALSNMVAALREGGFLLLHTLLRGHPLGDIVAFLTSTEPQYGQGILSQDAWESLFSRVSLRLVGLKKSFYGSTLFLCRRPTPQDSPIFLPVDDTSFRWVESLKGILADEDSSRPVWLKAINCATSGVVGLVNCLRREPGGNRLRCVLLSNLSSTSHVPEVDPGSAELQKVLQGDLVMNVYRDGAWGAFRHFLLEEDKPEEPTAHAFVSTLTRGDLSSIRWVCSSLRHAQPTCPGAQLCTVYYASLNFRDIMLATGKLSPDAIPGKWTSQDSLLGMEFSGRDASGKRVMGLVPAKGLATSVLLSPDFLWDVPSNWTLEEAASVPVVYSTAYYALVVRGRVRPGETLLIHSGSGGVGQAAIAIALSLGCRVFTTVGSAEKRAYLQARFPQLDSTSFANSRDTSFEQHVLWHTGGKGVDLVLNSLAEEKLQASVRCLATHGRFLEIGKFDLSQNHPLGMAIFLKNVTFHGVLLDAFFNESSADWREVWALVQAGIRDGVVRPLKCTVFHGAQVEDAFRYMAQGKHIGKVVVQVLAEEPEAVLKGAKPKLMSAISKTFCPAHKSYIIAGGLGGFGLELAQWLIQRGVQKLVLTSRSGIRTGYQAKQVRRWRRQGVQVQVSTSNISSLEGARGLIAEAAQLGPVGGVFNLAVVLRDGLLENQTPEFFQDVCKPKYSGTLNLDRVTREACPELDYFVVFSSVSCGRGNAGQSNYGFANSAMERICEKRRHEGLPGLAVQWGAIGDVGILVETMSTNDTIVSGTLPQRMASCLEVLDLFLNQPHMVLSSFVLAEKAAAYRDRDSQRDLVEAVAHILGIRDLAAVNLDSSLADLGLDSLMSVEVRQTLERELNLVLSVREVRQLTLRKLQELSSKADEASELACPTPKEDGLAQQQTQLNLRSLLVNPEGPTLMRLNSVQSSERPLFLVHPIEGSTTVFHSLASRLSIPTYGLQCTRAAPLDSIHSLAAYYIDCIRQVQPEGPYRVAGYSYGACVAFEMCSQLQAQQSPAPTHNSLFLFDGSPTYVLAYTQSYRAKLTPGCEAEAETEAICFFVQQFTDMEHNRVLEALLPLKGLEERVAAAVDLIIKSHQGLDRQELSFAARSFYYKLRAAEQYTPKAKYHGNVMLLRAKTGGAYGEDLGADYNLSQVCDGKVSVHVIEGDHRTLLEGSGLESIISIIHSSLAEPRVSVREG

For NS(=O)(=O)c1ccc(N2CCCC2=O)c([N+](=O)[O-])c1, the IC50 [1] was > 109 µM (inactive) and the IC50 [2] was > 83.2 µM (inactive).
In the case of COc1ccc(CCNCc2c(OC)ccc3ccccc23)cc1, the IC50 [3] is reported as > 123 µM (inactive) and the IC50 [4] is reported as > 123 µM (inactive).
For COc1ccc(N=Nc2nc(-c3ccccc3)c(-c3ccccc3)[nH]2)cc1, the IC50 [5] was > 122 µM (inactive).
In the case of O=C(NC(Nc1ncc(S(=O)(=O)c2ccc([N+](=O)[O-])cc2)s1)(C(F)(F)F)C(F)(F)F)c1ccc(Cl)cc1, the EC50 (BJ [6]) is reported as 11 µM (inconclusive), the EC50 (BJ [7]) is reported as 52.1 µM (active) and the EC50 (BJ [8]) is reported as 20.1 µM (active). For the same compound, the EC50 [9] was 12.4 µM (active), the EC50 (BJ [10]) was 83.6 µM (active) and the AC50 [11] was 2.35 µM (active). For the same compound, the IC50 (Fatty acid synthase [12]) was 9.12 µM (active), the IC50 (Fatty acid synthase [13]) was 7.87 µM (active) and the AC50 [14] was 9.01 µM (active). The AC50 [15] was 4.29 µM (active).
With Sc1nnc(COc2ccc(Cl)cc2)n1-c1ccccc1 the IC50 [5] was > 122 µM (inactive).
With Cc1ccc(NS(=O)(=O)c2ccc(OCC(=O)Nc3cccc([N+](=O)[O-])c3)c(C)c2)cc1 the CC50 [16] was > 40 µM (active) and the AC50 (Cytochrome P450 1A2) was 22.4 µM (inconclusive).
In the case of COc1ccccc1-n1c(CNCC2CCCO2)nc2ccccc2c1=O (stereo not given), the IC50 [3] is reported as > 122 µM (inactive) and the IC50 [4] is reported as > 122 µM (inactive).
